Here are results for 2 compounds from US11666559B2, “Spiro-lactam compounds, process and uses thereof” (UNIVERSIDADE DE COIMBRA, priority 2017, dated 2023).

The test system of data set [1] is HIV. Briefly: Anti-HIV activity evaluation (HIV type not specified). It is filed as cell-based. On the procedure:
In an embodiment, TZM-bl cells (AIDS Research and Reference Reagent Program, National Institutes of Health, USA) were cultured in complete growth medium that consists of Dulbecco's minimal essential medium (DMEM) supplemented with 10% fetal bovine serum (FBS), 100 U/ml of penicillin-streptomycin (Gibco/Invitrogen, USA), 1 mM of sodium pyruvate (Gibco/Invitrogen, USA), 2 mM of L-glutamine (Gibco/Invitrogen, USA) and 1 mM of non-essential amino acids (Gibco/Invitrogen, USA).
In an embodiment, the primary isolates 93AOHDC249, 93AOHDC250, 01PTHDECJN and 03PTHCC9, used in this study were previously isolated, titrated and characterized for co-receptor usage. HIV reference strain SG3.1 was obtained by transfection of HEK293T cells with pSG3.1 (HIV-1) plasmid using Fugene 6 reagent (Roche, Switzerland) according to manufacturer's instructions.
In an embodiment, the 50% tissue culture infectious dose (TCID50) of the virus was determined in a single-round viral infectivity assay using a luciferase reporter gene assay in TZM-bl cells and calculated using the statistical method of Reed and Muench^27.
In an embodiment, the antiviral activity of the compounds was determined in a single-round assay with TZM-bl cells as previously described ^26. […] After 48 h of infection, luciferase expression was quantified with the One-Glow luciferase assay substrate reagent (Promega, USA) according to manufacturer's instructions. […] After an incubation of 3 minutes at room temperature to allow complete cell lysis luminescence was measured in Tecan Infinite M200. Background luminescence was measured by using control wells that contained only target cells and GM. […]
In an embodiment, dose-response curves were estimated from the percentage of inhibition of infection (y-axis) against logo of concentration of each compound (x-axis) using the sigmoidal dose-response equation (variable slope) in GraphPad Prism version 5.00 for Windows (GraphPad Software, San Diego Calif. USA, www.graphpad.com). IC50 and IC90 values were determined from this curve. […]

For data set [2], the system named is TZM-bl cells. Kind of data set: Cellular viability assay (alamarBlue) in TZM-bl cells. The source says:
In an embodiment, the cellular cytotoxicity of 17 spiro-β-lactams was investigated in TZM-bl cells using the AlamarBlue assay as recommended by the manufacturer (Invitrogen, USA). TZM-bl, previously designated JC53-bl (clone 13) is a HeLa cell line. The parental cell line (JC.53) stably expresses large amounts of CD4, CCR5 and CXCR4. The TZM-bl cell line was generated from JC.53 cells by introducing separate integrated copies of the luciferase and […] genes under control of the HIV-1 promoter. The TZM-bl cell line is highly sensitive to infection with diverse isolates of HIV.
In an embodiment, the cellular viability assay was carried out as follows: the potential in vitro cytotoxicity of all BSS compounds was evaluated in TZM-bl cells. TZM-bl cells (10000 cells/well in 96-well plates) were incubated in absence or presence of serial-two-fold dilutions of the compounds in growth medium (GM), with starting concentration of 100 μg/ml and a final concentration of 0.781 μg/ml. After 48 hours, cell viability was examined with alamarBlue reagent (Invitrogen, USA) according to manufacturer's instructions. Briefly, 10 μl of alamarBlue reagent was added to each well. After 4 hours at 37° C., the fluorescence was measured in Tecan Infinite M200 (excitation wavelength 550 nm and emission wavelength 600 nm).
In an embodiment, at least two independent experiments have been performed for each cytotoxicity analysis.
In an embodiment, for each assay there were medium controls (only growth medium), cell controls (cells without test compound) and cytotoxicity controls (a compound that kill cells—SDS).
(Resazurin is reduced to fluorescent resorufin, in cell work by metabolically active cells.)

For data set [3], the system named is P. berghei liver stages. Kind of data set: In vitro activity against the liver stage of Plasmodium infection (luciferase assay in Huh7 cells). It is filed as cell-based, Plasmodium berghei. As to conditions: P. berghei liver stages in Huh7 cells. How it is done:
FIG. 6: Compound activity against P. berghei liver stages. Anti-Plasmodial activity (infection axis, bars) and toxicity to hepatoma cells (cell confluency axis, circles) are shown. Infection loads of Huh7 cells, a human hepatoma cell line, were determined by bioluminescence measurements of cell lysates 48 h after infection with luciferase-expressing P. berghei parasites. Luciferase assay in 96 well-plate; 10 000 Huh7 cells/well+10 000 PbA-LuciGFPcon spz/well.
In an embodiment, the in vitro activity against the liver stage of Plasmodium infection was also carried out: inhibition of liver stage Plasmodium infection by test compounds was determined by measuring the luminescence intensity in Huh-7 cells infected with a firefly luciferase-expressing P. berghei line, as previously described. Briefly, Huh-7 cells, a human hepatoma cell line, were cultured in 1640 RPMI medium supplemented with 10% v/v fetal bovine serum, 1% v/v nonessential amino acids, 1% v/v penicillin/streptomycin, 1% v/v glutamine, and 10 mM 4-(2-hydroxyethyl)-1-piperazineethanesulfonic acid (HEPES), pH 7, and maintained at 37° C. with 5% CO2. For infection assays, Huh-7 cells (1.0×10^4 per well) were seeded in 96-well plates the day before drug treatment and infection. The medium was replaced by medium containing the appropriate concentration of each compound approximately 1 h prior to infection with sporozoites freshly obtained through disruption of salivary glands of infected female Anopheles stephensi mosquitoes. Sporozoite addition was followed by centrifugation at 1700×g for 5 min. Parasite infection load was measured 48 h after infection by a bioluminescence assay (Biotium). The effect of the compounds on the viability of Huh-7 cells was assessed by the AlamarBlue assay (Invitrogen, U.K.) using the manufacturer's protocol.

Usually CC50 stands for the concentration giving 50% cytotoxicity. On to `COC(=O)C1=C[C@@]2(N=N1)C(=O)N1[C@@H](C(=O)OC(c3ccccc3)c3ccccc3)C(C)(C)S[C@@H]12` [BSS-452], for which the “anti-HIV activity (in words)” value in data set [1] was “non-active”. Further, in data set [2], it took 105 µM to reach half-maximal cytotoxicity (CC50). For the same compound, the “anti-Plasmodium activity (in words)” value in data set [3] is “did not display anti-Plasmodium activity”.

With `COC(=O)C1=C(C(=O)OC)[C@@]2(N=N1)C(=O)N1[C@@H](C(=O)OC(c3ccccc3)c3ccccc3)C(C)(C)S[C@@H]12` [BSS-1026], the “anti-HIV activity (in words)” value in data set [1] is recorded as “non-active”. Also, in data set [2], the CC50 turned out to be 82 µM. Also, in data set [3], the “anti-Plasmodium activity (in words)” value is “did not display anti-Plasmodium activity”.
